In test [1] the target is T1, Transient receptor potential cation channel subfamily A member 1 (Homo sapiens, UniProt O75762). The test can be described thus: Antagonist activity at human TRPA1 expressed in HEK293 cells assessed as inhibition of 5H-dibenzo[b,e]azepine-10-carboxylic acid methyl ester-induced increase in intracellular calcium by Fluo4-AM based fluorometric assay. The format is functional, cell-based. On the technique in general: Calcium assays in cells follow changes in intracellular calcium, usually with a dye or a luminescent sensor.

Test [2] concerns the target T2, Transient receptor potential cation channel subfamily A member 1 (Rattus norvegicus, UniProt Q6RI86). The test can be described thus: Antagonist activity at rat TRPA1 expressed in HEK293 cells assessed as inhibition of BITC-induced increase in intracellular calcium concentration by Fluo4-AM based fluorometric assay. The format is functional, cell-based.
The target of test [3] is T1, Transient receptor potential cation channel subfamily A member 1. As to the kind of experiment: Antagonist activity at human TRPA1 expressed in HEK293 cells assessed as inhibition of N-methyl-maleimide-induced current by patch clamp assay. Background: The patch-clamp technique gives a direct electrical read-out from membranes.
Test [4] concerns the target T2, Transient receptor potential cation channel subfamily A member 1. As to the kind of experiment: Antagonist activity at rat TRPA1 expressed in HEK293 cells assessed as inhibition of N-methyl-maleimide-induced current by patch clamp assay.

The record followed here is ChEMBL document CHEMBL1938315, “Tricyclic 3,4-dihydropyrimidine-2-thione derivatives as potent TRPA1 antagonists” (Bioorg Med Chem Lett, 2012).

T1 sequence (O75762 whole entry): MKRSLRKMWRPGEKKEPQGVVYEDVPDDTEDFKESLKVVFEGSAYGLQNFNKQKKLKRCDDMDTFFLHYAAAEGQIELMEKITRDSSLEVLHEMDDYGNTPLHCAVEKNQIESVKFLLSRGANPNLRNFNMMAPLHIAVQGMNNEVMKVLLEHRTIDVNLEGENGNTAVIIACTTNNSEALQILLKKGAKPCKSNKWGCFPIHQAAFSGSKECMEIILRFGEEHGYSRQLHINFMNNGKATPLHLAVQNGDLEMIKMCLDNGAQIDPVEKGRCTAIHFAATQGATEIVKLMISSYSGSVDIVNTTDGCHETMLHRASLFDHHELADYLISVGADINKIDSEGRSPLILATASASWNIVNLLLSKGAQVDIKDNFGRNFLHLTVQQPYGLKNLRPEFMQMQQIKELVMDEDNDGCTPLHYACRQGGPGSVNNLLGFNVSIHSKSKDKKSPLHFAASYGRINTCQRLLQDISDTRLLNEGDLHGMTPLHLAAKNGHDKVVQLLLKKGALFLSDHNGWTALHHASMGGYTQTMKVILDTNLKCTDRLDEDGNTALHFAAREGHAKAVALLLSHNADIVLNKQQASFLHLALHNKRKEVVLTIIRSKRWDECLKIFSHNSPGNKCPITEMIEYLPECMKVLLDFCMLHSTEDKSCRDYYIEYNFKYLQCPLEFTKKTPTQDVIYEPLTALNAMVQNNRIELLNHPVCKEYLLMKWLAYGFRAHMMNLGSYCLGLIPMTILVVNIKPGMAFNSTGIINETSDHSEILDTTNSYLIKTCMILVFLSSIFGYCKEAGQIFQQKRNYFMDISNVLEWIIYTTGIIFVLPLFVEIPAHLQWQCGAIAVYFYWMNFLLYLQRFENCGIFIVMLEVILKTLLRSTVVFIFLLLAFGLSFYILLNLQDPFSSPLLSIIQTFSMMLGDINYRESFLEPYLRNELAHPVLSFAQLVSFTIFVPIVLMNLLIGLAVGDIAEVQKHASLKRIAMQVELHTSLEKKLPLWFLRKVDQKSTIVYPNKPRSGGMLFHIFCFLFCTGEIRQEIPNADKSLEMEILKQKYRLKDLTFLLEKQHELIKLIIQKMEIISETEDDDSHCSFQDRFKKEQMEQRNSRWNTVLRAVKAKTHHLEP
T2 sequence (Q6RI86 whole entry): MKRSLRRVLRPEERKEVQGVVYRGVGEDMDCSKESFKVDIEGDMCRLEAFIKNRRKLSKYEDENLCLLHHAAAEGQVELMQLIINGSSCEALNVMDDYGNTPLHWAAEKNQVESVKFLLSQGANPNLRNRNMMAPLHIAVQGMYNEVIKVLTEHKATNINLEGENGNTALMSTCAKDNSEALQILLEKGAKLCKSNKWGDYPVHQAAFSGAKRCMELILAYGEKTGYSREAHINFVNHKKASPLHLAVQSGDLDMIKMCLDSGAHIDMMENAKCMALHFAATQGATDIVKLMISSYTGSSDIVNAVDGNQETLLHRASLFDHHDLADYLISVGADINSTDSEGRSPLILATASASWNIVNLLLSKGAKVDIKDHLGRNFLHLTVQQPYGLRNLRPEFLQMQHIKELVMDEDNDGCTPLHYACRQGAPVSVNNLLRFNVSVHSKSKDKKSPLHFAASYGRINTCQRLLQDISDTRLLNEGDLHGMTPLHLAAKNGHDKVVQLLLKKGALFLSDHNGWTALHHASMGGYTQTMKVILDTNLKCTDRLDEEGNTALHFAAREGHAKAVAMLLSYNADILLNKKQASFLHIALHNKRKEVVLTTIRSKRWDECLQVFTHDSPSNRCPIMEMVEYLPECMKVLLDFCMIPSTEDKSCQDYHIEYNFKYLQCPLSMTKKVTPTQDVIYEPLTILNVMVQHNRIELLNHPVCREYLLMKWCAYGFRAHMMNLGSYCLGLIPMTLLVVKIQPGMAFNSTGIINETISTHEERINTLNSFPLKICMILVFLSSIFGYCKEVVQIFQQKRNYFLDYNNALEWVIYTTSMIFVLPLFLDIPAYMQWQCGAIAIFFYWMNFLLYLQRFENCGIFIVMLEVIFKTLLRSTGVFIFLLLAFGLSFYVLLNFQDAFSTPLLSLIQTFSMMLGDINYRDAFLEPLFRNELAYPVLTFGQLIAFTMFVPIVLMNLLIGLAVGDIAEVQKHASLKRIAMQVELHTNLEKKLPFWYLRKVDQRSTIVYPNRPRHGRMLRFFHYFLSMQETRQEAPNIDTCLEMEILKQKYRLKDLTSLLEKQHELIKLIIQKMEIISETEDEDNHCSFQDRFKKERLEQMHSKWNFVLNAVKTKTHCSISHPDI

For orientation: IC50 means the point on the concentration scale where inhibition reaches its midpoint. Take `COc1cc(OC)cc(C2NC(=S)NC3=C2C(=O)c2ccccc23)c1` (stereo unspecified): the IC50 in test [1] came to 2.78 µM; in test [2], 0.8 µM.
The corresponding values for `O=C1C2=C(NC(=S)NC2c2cccc(OCCO)c2)c2ccccc21` (stereo unspecified) are 0.21 µM and 0.047 µM.
Broadly, the EC50 is the concentration that produces a half-maximal response. `COc1cccc([C@@H]2NC(=S)NC3=C2C(=O)c2ccccc23)c1`: the IC50 in test [2] was > 10 µM. Also, the EC50 in test [3] is 12 µM.
In the case of `S=C1NC2=C(CCc3ccccc32)C(c2ccccc2)N1` (stereo unspecified), the IC50 in test [1] is > 10 µM.
On to `CN(C)CCCOc1cccc(C2NC(=S)NC3=C2C(=O)c2ccccc23)c1` (stereo unspecified), for which the IC50 in test [1] and in test [2] was > 10 µM in each case.
As for `COc1cccc(C2NC(=S)NC3=C2C(=O)c2ccccc23)c1OC` (stereo unspecified), in test [2], the IC50 was found to be 2.7 µM.
For `O=C1C2=C(NC(=S)NC2c2cccc(OCCCCO)c2)c2ccccc21` (stereo unspecified), the IC50 in test [1] amounted to 0.07 µM; in test [2], 0.01 µM.
`O=C1C2=C(NC(=S)NC2c2cccc(Br)c2)c2ccccc21` (stereo unspecified): the concentration for half-maximal inhibition (IC50) in test [2] stood at 0.071 µM.
Regarding `S=C(NCc1ccccc1)NCc1ccccc1`, the IC50 in test [1] is > 10 µM.
`O=C(O)c1cccc(C2NC(=S)NC3=C2C(=O)c2ccccc23)c1` (stereo unspecified): the IC50 in test [1] and in test [2] was > 10 µM in each case.
Take `SC1=NC(c2ccccc2)=CC(c2ccccc2)N1` (stereo unspecified): the IC50 in test [1] was > 10 µM.
As to `COc1cccc(C2C3=C(NC(=S)N2C)c2ccccc2C3=O)c1` (racemic), in test [2], the IC50 was determined as 0.98 µM.
For `COc1ccccc1C1NC(=S)NC2=C1C(=O)c1ccccc12` (stereo unspecified), the IC50 in test [1] was > 10 µM; in test [2], 9.4 µM.
Consider `S=C1NC2=C(CCCC2)C(c2ccccc2)N1` (stereo unspecified), for which the IC50 in test [1] is > 10 µM.
`O=C1C2=C(NC(=S)N[C@H]2c2ccccc2)c2ccccc21`: the IC50 was 8.1 µM in test [1] and > 10 µM in test [2].
The corresponding values for `O=C1C2=C(NC(=S)NC2c2cccc(CO)c2)c2ccccc21` (stereo unspecified) are 0.71 µM and 0.044 µM.
The corresponding values for `O=C1C2=C(NC(=S)N[C@@H]2c2ccccc2)c2ccccc21` are 0.77 µM and 0.31 µM.
Take `COc1cccc(C2NC(=S)NC3=C2C(=O)c2ccccc23)c1` (racemic): the results for the IC50 in test [1] and in test [2] were 0.13 µM and 0.02 µM, respectively.
On to `CCCCOc1cccc(C2NC(=S)NC3=C2C(=O)c2ccccc23)c1` (stereo unspecified), for which the half-maximal inhibitory concentration (IC50) in test [1] is 0.31 µM; in test [2] it was 0.07 µM.
Turning to `CC1=C(C(=O)c2ccccc2)C(c2ccccc2)NC(=S)N1` (stereo unspecified), the IC50 in test [1] was > 10 µM.
On to `O=C1C2=C(NC(=S)NC2c2cccc(O)c2)c2ccccc21` (stereo unspecified), for which the IC50 in test [1] is 0.64 µM; in test [2] it was 0.23 µM.
For `CC(C)c1ccc(NC(=O)Cn2cnc3c2c(=O)n(C)c(=O)n3C)cc1` the same measures were > 10 µM and 5.6 µM.
Consider `O=C1C2=C(NC(=S)NC2c2ccccc2F)c2ccccc21` (stereo unspecified), for which the IC50 is 2.07 µM in test [1] and 3.39 µM in test [2].
Turning to `COCCCOc1cccc([C@@H]2NC(=S)NC3=C2C(=O)c2ccccc23)c1`, the IC50 in test [2] is > 10 µM.
With `O=C1C2=C(NC(=S)NC2c2cccc(F)c2)c2ccccc21` (stereo unspecified), the IC50 in test [1] was determined as 1.1 µM; in test [2], 0.39 µM.
The corresponding values for `COCCCOc1cccc(C2NC(=O)NC3=C2C(=O)c2ccccc23)c1` (racemic) are 1.7 µM and 0.5 µM.
Regarding `CN(C)CCOc1cccc(C2NC(=S)NC3=C2C(=O)c2ccccc23)c1` (stereo unspecified), the 50% inhibitory concentration (IC50) was > 10 µM in test [1] and 8.9 µM in test [2].
The corresponding values for `COc1cccc(C2NC(=O)NC3=C2C(=O)c2ccccc23)c1` (racemic) are 3.9 µM and 4.7 µM.
For `COc1ccc(Oc2cccc(C3NC(=S)NC4=C3C(=O)c3ccccc34)c2)cc1` (stereo unspecified), the IC50 in test [1] worked out at 1.5 µM; in test [2] it was 0.16 µM.
For `O=C1NC2=C(C(=O)c3ccccc32)C(c2ccccc2)N1` (stereo unspecified) the same measures were > 10 µM and > 10 µM.
As for `COc1ccc(OC)c(C2NC(=S)NC3=C2C(=O)c2ccccc23)c1` (stereo unspecified), the IC50 in test [2] was > 10 µM.
In the case of `S=C1NC2=C(CCC2)C(c2ccccc2)N1` (stereo unspecified), in test [1], the 50% inhibitory concentration (IC50) is > 10 µM.
Turning to `O=C1C2=C(NC(=S)NC2c2ccccc2)c2ccccc21` (racemic), the IC50 in test [1] was determined as 1.8 µM; in test [2] it was 1.9 µM.
Regarding `SC1=NC2=C(CCC/C2=C\c2ccccc2)C(c2ccccc2)N1` (stereo unspecified), the IC50 in test [1] was > 10 µM.
As for `COc1cccc([C@H]2NC(=S)NC3=C2C(=O)c2ccccc23)c1`, the IC50 in test [1] came to 0.075 µM; in test [2], 0.012 µM. Besides, the EC50 in test [3] came out at 0.01 µM; in test [4], 0.22 µM.
For `COc1cccc(C2NC(=S)N(C)C3=C2C(=O)c2ccccc23)c1` (racemic), the results for the IC50 in test [1] and in test [2] were 0.085 µM and 0.003 µM, respectively.
Turning to `O=C1CCCC2=C1C(c1ccccc1)NC(S)=N2` (stereo unspecified), the IC50 in test [1] was > 10 µM.
For the molecule `COc1ccc(C2NC(=S)NC3=C2C(=O)c2ccccc23)cc1` (stereo unspecified), the concentration for half-maximal inhibition (IC50) in test [1] stood at 3.1 µM; in test [2], 3.5 µM.
For `COCCCOc1cccc([C@H]2NC(=S)NC3=C2C(=O)c2ccccc23)c1` the same measures were 0.013 µM and 0.004 µM.
The corresponding values for `COCCCOc1cccc(C2NC(=S)NC3=C2C(=O)c2ccccc23)c1` (racemic) are 0.05 µM and 0.011 µM.
For `CCOC(=O)C1=C(c2ccccc2)NC(=S)NC1c1cccc(OC)c1` (stereo unspecified) the same measures were > 10 µM and 9.5 µM.
